Binding % data for 20 compounds are collected here from US10646488B2 (Araxes Pharma LLC, priority 2016, dated 2020).

This experiment deals with T1, KRAS G12C 1-169, his-tagged protein, GDP-loaded (Homo sapiens, UniProt P01116, G12C).
T1 construct: KRAS G12C 1-169, his-tagged protein, GDP-loaded
The experiment can be described thus: Covalent binding (% modification) to KRAS G12C by mass spectrometry. Further: test concentration or dose not given here.

Where [1] appears, read: covalent binding to KRAS G12C after a three minute incubation period.
Setting [2] is: % modification at 10 min (footnote †).

With `C[C@@H]1CN(c2nc(N3CC(N(C)C)C3)nc3c(F)c(-c4c(O)cccc4F)c(Cl)cc23)[C@@H](C)CN1C(=O)/C(C#N)=C/c1ccccn1` [Compound 111, (E)-2-((2R,5S)-4-(6-chloro-2-(3-(dimethylamino)azetidin-1-yl)-8-fluoro-7-(2-fluoro-6-hydroxyphenyl)quinazolin-4-yl)-2,5-dimethyl-piperazine-1-carbonyl)-3-(pyridin-2-yl) acrylonitrile], the Binding % result under setting [1] is “+ (+ indicates binding activity greater than 0% and up to 50%)”.

With `C=CC(=O)N1C[C@H](C)N(c2nc(OCCN3CC(F)(F)C3)nc3c(F)c(-c4c(C)ccc5cn[nH]c45)c(Cl)cc23)C[C@H]1C` [Compound 112, 1-((2R,5S)-4-(6-chloro-2-(2-(3,3-difluoroazetidin-1-yl)ethoxy)-8-fluoro-7-(6-methyl-1H-indazol-7-yl)quinazolin-4-yl)-2,5-dimethyl-piperazin-1-yl) prop-2-en-1-one], the Binding % entry under setting [1] is “++ (++ indicates binding activity from 50 to 90%)”.

For the compound `C[C@@H]1CN(c2nc(N3CC(N(C)C)C3)nc3c(F)c(-c4c(O)cccc4F)c(Cl)cc23)[C@@H](C)CN1C(=O)C#CCO` [Compound 113, 1-((2R,5S)-4-(6-chloro-2-(3-(dimethylamino)azetidin-1-yl)-8-fluoro-7-(2-fluoro-6-hydroxyphenyl)quinazolin-4-yl)-2,5-dimethyl-piperazin-1-yl)-4-hydroxybut-2-yn-1-one], under setting [1], the Binding % result was “+++ (+++ indicates binding activity greater than 90%)”.

Take `CC#CC(=O)N1C[C@H](C)N(c2nc(N3CC(N(C)C)C3)nc3c(F)c(-c4c(O)cccc4F)c(Cl)cc23)C[C@H]1C` [Compound 114, 1-((2R,5S)-4-(6-chloro-2-(3-(dimethylamino)azetidin-1-yl)-8-fluoro-7-(2-fluoro-6-hydroxyphenyl)quinazolin-4-yl)-2,5-dimethyl-piperazin-1-yl) but-2-yn-1-one]: under setting [2], the Binding % entry was “+ (+ indicates binding activity greater than 0% and up to 50%)”.

As to `C[C@@H]1CN(c2nc(N3CC(N(C)C)C3)nc3c(F)c(-c4c(O)cccc4F)c(Cl)cc23)[C@@H](C)CN1C(=O)C1CO1` (stereo partly drawn) [Compound 115, ((2R,5S)-4-(6-chloro-2-(3-(dimethylamino)azetidin-1-yl)-8-fluoro-7-(2-fluoro-6-hydroxyphenyl)quinazolin-4-yl)-2,5-dimethyl-piperazin-1-yl) (oxiran-2-yl) methanone], under setting [2], the Binding % result was “+ (+ indicates binding activity greater than 0% and up to 50%)”.

Regarding `C=CC(=O)N1C[C@H](C)N(c2nc(N3CC(N(CC)C4CC4)C3)nc3c(F)c(-c4c(C)ccc5cn[nH]c45)c(Cl)cc23)C[C@H]1C` [Compound 116, 1-((2R,5S)-4-(6-chloro-2-(3-(cyclopropyl (ethyl)amino)azetidin-1-yl)-8-fluoro-7-(6-methyl-1H-indazol-7-yl)quinazolin-4-yl)-2,5-dimethyl-piperazin-1-yl) prop-2-en-1-one], the Binding % entry under setting [1] is listed as “++ (++ indicates binding activity from 50 to 90%)”.

As for `C=CC(=O)N1C[C@H](C)N(c2nc(N3CC(N(CC)CC)C3)nc3c(F)c(-c4c(C)ccc5cn[nH]c45)c(Cl)cc23)C[C@H]1C` [Compound 117, 1-((2R,5S)-4-(6-chloro-2-(3-(diethylamino)azetidin-1-yl)-8-fluoro-7-(6-methyl-1H-indazol-7-yl)quinazolin-4-yl)-2,5-dimethyl-piperazin-1-yl) prop-2-en-1-one], under setting [1], the Binding % result is “+ (+ indicates binding activity greater than 0% and up to 50%)”.

As for `C=CC(=O)N1C[C@H](C)N(c2nc(N3CC(N(C)CC)C3)nc3c(F)c(-c4c(C)ccc5cn[nH]c45)c(Cl)cc23)C[C@H]1C` [Compound 118, 1-((2R,5S)-4-(6-chloro-2-(3-(ethyl(methyl)amino)azetidin-1-yl)-8-fluoro-7-(6-methyl-1H-indazol-7-yl)quinazolin-4-yl)-2,5-dimethyl-piperazin-1-yl) prop-2-en-1-one], the Binding % entry under setting [1] is “+ (+ indicates binding activity greater than 0% and up to 50%)”.

For `C=CC(=O)N1C[C@H](C)N(c2nc(N3CC(N(C)CC)C3)nc3c(F)c(-c4c(C)ccc5[nH]ncc45)c(Cl)cc23)C[C@H]1C` [Compound 119, 1-((2R,5S)-4-(6-chloro-2-(3-(ethyl(methyl)amino)azetidin-1-yl)-8-fluoro-7-(5-methyl-1H-indazol-4-yl)quinazolin-4-yl)-2,5-dimethyl-piperazin-1-yl) prop-2-en-1-one], the Binding % entry under setting [1] was “+ (+ indicates binding activity greater than 0% and up to 50%)”.

Turning to `C=CC(=O)N1C[C@H](C)N(c2nc(N3CC(C)(N(C)C)C3)nc3c(F)c(-c4c(C)ccc5[nH]ncc45)c(Cl)cc23)C[C@H]1C` [Compound 121, 1-((2R,5S)-4-(6-chloro-2-(3-(dimethylamino)-3-methylazetidin-1-yl)-8-fluoro-7-(5-methyl-1H-indazol-4-yl)quinazolin-4-yl)-2,5-dimethyl-piperazin-1-yl) prop-2-en-1-one], the Binding % entry under setting [1] is listed as “++ (++ indicates binding activity from 50 to 90%)”.

Regarding `C=CC(=O)N1C[C@H](C)N(c2nc(N3CC(N(C)C(C)C)C3)nc3c(F)c(-c4c(C)ccc5cn[nH]c45)c(Cl)cc23)C[C@H]1C` [Compound 122, 1-((2R,5S)-4-(6-chloro-8-fluoro-2-(3-(isopropyl (methyl)amino)azetidin-1-yl)-7-(6-methyl-1H-indazol-7-yl)quinazolin-4-yl)-2,5-dimethyl-piperazin-1-yl) prop-2-en-1-one], under setting [1], the Binding % result is “++ (++ indicates binding activity from 50 to 90%)”.

Consider `C=CC(=O)N1C[C@H](C)N(c2nc(N3CC(N(C)C(C)C)C3)nc3c(F)c(-c4c(C)ccc5[nH]ncc45)c(Cl)cc23)C[C@H]1C` [Compound 123, 1-((2R,5S)-4-(6-chloro-8-fluoro-2-(3-(isopropyl (methyl)amino)azetidin-1-yl)-7-(5-methyl-1H-indazol-4-yl)quinazolin-4-yl)-2,5-dimethyl-piperazin-1-yl) prop-2-en-1-one], for which, under setting [1], the Binding % result is “+ (+ indicates binding activity greater than 0% and up to 50%)”.

Turning to `C=CC(=O)N1C[C@H](C)N(c2nc(N3CC(C)(N(C)C)C3)nc3c(F)c(-c4c(C)ccc5cn[nH]c45)c(Cl)cc23)C[C@H]1C` [Compound 124, 1-((2R,5S)-4-(6-chloro-2-(3-(dimethylamino)-3-methylazetidin-1-yl)-8-fluoro-7-(6-methyl-1H-indazol-7-yl)quinazolin-4-yl)-2,5-dimethyl-piperazin-1-yl) prop-2-en-1-one], the Binding % entry under setting [1] was “++ (++ indicates binding activity from 50 to 90%)”.

On to `C=CC(=O)N1C[C@H](C)N(c2nc(N3CC(N(CC)C4CC4)C3)nc3c(F)c(-c4c(C)ccc5[nH]ncc45)c(Cl)cc23)C[C@H]1C` [Compound 125, 1-((2R,5S)-4-(6-chloro-2-(3-(cyclopropyl (ethyl)amino)azetidin-1-yl)-8-fluoro-7-(5-methyl-1H-indazol-4-yl)quinazolin-4-yl)-2,5-dimethyl-piperazin-1-yl) prop-2-en-1-one], for which the Binding % result under setting [1] is recorded as “++ (++ indicates binding activity from 50 to 90%)”.

In the case of `C=CC(=O)N1C[C@H](C)N(c2nc(N3CC(N(CC)CC)C3)nc3c(F)c(-c4c(O)cccc4F)c(Cl)cc23)C[C@H]1C` [Compound 126, 1-((2R,5S)-4-(6-chloro-2-(3-(diethylamino)azetidin-1-yl)-8-fluoro-7-(2-fluoro-6-hydroxyphenyl)quinazolin-4-yl)-2,5-dimethyl-piperazin-1-yl) prop-2-en-1-one], the Binding % result under setting [1] is “+++ (+++ indicates binding activity greater than 90%)”.

On to `C=CC(=O)N1C[C@H](C)N(c2nc(N3CC(N(CC)CC)C3)nc3c(F)c(-c4c(C)ccc5cn[nH]c45)c(Cl)cc23)C[C@H]1C` [Compound 129, 1-((2R,5S)-4-(6-chloro-2-(3-(diethylamino)azetidin-1-yl)-8-fluoro-7-(6-methyl-1H-indazol-7-yl)quinazolin-4-yl)-2,5-dimethyl-piperazin-1-yl) prop-2-en-1-one], for which the Binding % entry under setting [1] is “++ (++ indicates binding activity from 50 to 90%)”.

Regarding `C=CC(=O)N1C[C@H](C)N(c2nc(N3CC(N(C)C)C3)nc3c(F)c(-c4ccccc4F)c(Cl)cc23)C[C@H]1C` [Compound 132, 1-((2R,5S)-4-(6-chloro-2-(3-(dimethylamino)azetidin-1-yl)-8-fluoro-7-(2-fluorophenyl)quinazolin-4-yl)-2,5-dimethyl-piperazin-1-yl) prop-2-en-1-one], under setting [1], the Binding % result is listed as “++ (++ indicates binding activity from 50 to 90%)”.

Take `C=CC(=O)N1C[C@H](C)N(c2nc(N3CC(N(C)C4CC4)C3)nc3c(F)c(-c4c(C)ccc5cn[nH]c45)c(Cl)cc23)C[C@H]1C` [Compound 133, 1-((2R,5S)-4-(6-chloro-2-(3-(cyclopropyl (methyl)amino)azetidin-1-yl)-8-fluoro-7-(6-methyl-1H-indazol-7-yl)quinazolin-4-yl)-2,5-dimethyl-piperazin-1-yl) prop-2-en-1-one]: the Binding % result under setting [1] is listed as “++ (++ indicates binding activity from 50 to 90%)”.

With `C=CC(=O)N1C[C@H](C)N(c2nc(N3CC(N(C)C4CC4)C3)nc3c(F)c(-c4c(C)ccc5[nH]ncc45)c(Cl)cc23)C[C@H]1C` [Compound 134, 1-((2R,5S)-4-(6-chloro-2-(3-(cyclopropyl (methyl)amino)azetidin-1-yl)-8-fluoro-7-(5-methyl-1H-indazol-4-yl)quinazolin-4-yl)-2,5-dimethyl-piperazin-1-yl) prop-2-en-1-one], under setting [1], the Binding % entry was “++ (++ indicates binding activity from 50 to 90%)”.

With `C=CC(=O)N1C[C@H](C)N(c2nc(N3CC(N(C)C)C3)nc3c(F)c(-c4ccccc4O)c(Cl)cc23)C[C@H]1C` [Compound 135, 1-((2R,5S)-4-(6-chloro-2-(3-(dimethylamino)azetidin-1-yl)-8-fluoro-7-(2-hydroxyphenyl)quinazolin-4-yl)-2,5-dimethyl-piperazin-1-yl) prop-2-en-1-one], under setting [1], the Binding % entry is recorded as “++ (++ indicates binding activity from 50 to 90%)”.
